Patent publication US20220087996A1, “Histone acetylase p300 inhibitor and use thereof” (HINOVA PHARMACEUTICALS INC., priority 2018, published 2022)
Like-named read-outs stand apart in the source and are kept apart here.

Assays:
[1] = tested on: DU4475; assay: Inhibition of proliferation of DU4475 cells; format: cell-based; details: Homo sapiens, DU-4475; Breast cancer cell line DU4475; read-out: IC50 against DU4475
Experimental: (§1) 1) CWR22RV1 cells were subcultured in cell culture medium, and the cells in good growth condition were seeded in a 96-well plate, 80 μL for each well, and the cell number in each well was 1500. The plate was incubated overnight in a 37° C., 5% CO2 cell incubator. 2) The drug was prepared as 30 mM stock solution with dimethyl sulfoxide (DMSO). Prior to use, the stock solution was diluted 3 times with DMSO, and then further diluted as 3-fold gradient to obtain 9 concentration gradients. Then, each concentration of compound was diluted 200 times with the culture solution (ensuring that the DMSO concentration in the culture system was 0.1%), and two replicate wells were set for each concentration. 20 μL of diluted compound solution was added to the cell culture well (with final concentrations of 10 μM, 3.3 μM. 1.1 μM . . . ), and the plate was gently shaken to mix. In addition, 3 negative control wells containing only cells and 3 blank control wells containing only culture medium were included (6 wells were each added 20 μL DMSO diluted 200 times with culture medium). 2. Result detection: (1) After culturing for 6 days, 10 μL CCK-8 was added to each well, and the plate was continually cultured in a 37° C., 5% CO2 cell incubator for 2.5 h. (2) The absorbance (OD value) was detected at 450 nm using a multifunctional microplate reader. (3) The data were analyzed by Dose-response-inhibition equation in the software GraphPad Prism6, and the IC50 value was obtained.
(§2) Using the same method as Experimental example 2, CWR22RV1 cells were replaced with tumor cells in Table 3, and the IC50 (nM) of the compound according to the present invention against the activity of these tumor cells was tested and calculated.

[2] = tested on: MT-2; assay: Inhibition of proliferation of MT-2 cells; format: cell-based; details: Homo sapiens, MT2; Leukemia cell line MT-2; read-out: IC50 against MT-2
Experimental: as §1, §2

[3] = tested on: LNCAP-AR; assay: Inhibition of proliferation of LNCAP-AR cells; format: cell-based; details: Prostate cancer cell line LNCAP-AR; read-out: IC50 against LNCAP-AR
Experimental: as §1, §2

[4] = tested on: OCI-AML3; assay: Inhibition of proliferation of OCI-AML3 cells; format: cell-based; details: Homo sapiens, OCI-AML-3; Leukemia cell line OCI-AML3; read-out: IC50 against OCI-AML3
Experimental: as §1, §2

[5] = tested on: MCF-7; assay: Inhibition of proliferation of MCF-7 cells; format: cell-based; details: Homo sapiens, MCF7; Breast cancer cell line MCF-7; read-out: IC50 against MCF-7
Experimental: as §1, §2

[6] = tested on: MOLT-4; assay: Inhibition of proliferation of MOLT-4 cells; format: cell-based; details: Homo sapiens; Leukemia cell line MOLT-4; read-out: IC50 against MOLT-4
Experimental: as §1, §2

[7] = tested on: CWR22RV1 cells; assay: Inhibition of proliferation of CWR22RV1 cells (CCK-8); format: cell-based, human; details: Homo sapiens, CWR22Rv1, 144 h, 6 days culture
Method in brief: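 CWR22RV1 cells (1500/well) were exposed to 9 three-fold compound concentrations (top final 10 μM, 0.1% DMSO) for 6 days. CCK-8 was added for 2.5 h, and absorbance was read at 450 nm. IC50 was fitted with a dose-response-inhibition equation.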

[8] = tested on: HEL; assay: Inhibition of proliferation of HEL cells; format: cell-based; details: Homo sapiens; Leukemia cell line HEL; read-out: IC50 against HEL
Experimental: as §1, §2

[9] = tested on: RL; assay: Inhibition of proliferation of RL cells; format: cell-based; details: Homo sapiens; Lymphoma cell line RL; read-out: IC50 against RL
Experimental: as §1, §2

[10] = tested on: NCI-H929; assay: Inhibition of proliferation of NCI-H929 cells; format: cell-based; details: Homo sapiens; Multiple myeloma cell line NCI-H929; read-out: IC50 against NCI-H929
Experimental: as §1, §2

[11] = tested on: KMS-11; assay: Inhibition of proliferation of KMS-11 cells; format: cell-based; details: Homo sapiens; Multiple myeloma cell line KMS-11; read-out: IC50 against KMS-11
Experimental: as §1, §2

[12] = tested on: VCAP; assay: Inhibition of proliferation of VCAP cells; format: cell-based; details: Homo sapiens; Prostate cancer cell line VCAP; read-out: IC50 against VCAP
Experimental: as §1, §2

[13] = tested on: MAVER-1; assay: Inhibition of proliferation of MAVER-1 cells; format: cell-based; details: Homo sapiens, Maver1; Lymphoma cell line MAVER-1; read-out: IC50 against MAVER-1
Experimental: as §1, §2

[14] = tested on: ATN-1; assay: Inhibition of proliferation of ATN-1 cells; format: cell-based; details: Homo sapiens; Leukemia cell line ATN-1; read-out: IC50 against ATN-1
Experimental: as §1, §2

[15] = tested on: HCC1428; assay: Inhibition of proliferation of HCC1428 cells; format: cell-based; details: Homo sapiens; Breast cancer cell line HCC1428; read-out: IC50 against HCC1428
Experimental: as §1, §2

[16] = tested on: MCF-7 cells; assay: Compound in combination with CDK4/6 inhibitor palbociclib against proliferation of MCF-7 cells; format: cell-based; details: for IC50: Homo sapiens
Experimental: 1) CWR22RV1 cells were subcultured in cell culture medium, and the cells in good growth condition were seeded in a 96-well plate, 60 μL for each well, and the cell number in each well was 2000. The plate was incubated overnight in a 37° C., 5% CO2 cell incubator. 2) The drug was prepared as 10 mM stock solution with dimethyl sulfoxide (DMSO). Prior to use, the stock solution was diluted 3 times with DMSO, and then further diluted as 3-fold gradient to obtain 9 concentration gradients. Then, each concentration of compound was diluted 200 times with the culture solution (ensuring that the DMSO concentration in the culture system was 0.1%), and two replicate wells were set for each concentration. 20 μL of diluted compound solution was added to the cell culture well (with final concentrations of 10 μM, 3.3 μM, 1.1 μM . . . ). Palbociclib was diluted with culture medium to 500 nM, 150 nM, 50 nM, 5 nM, and 20 μL diluted compound solution was added to the corresponding cell culture wells (with a final concentration of 100 nM, 30 nM, 10 nM, 1 nM). The plate was gently shaken to mix. In addition, 3 negative control wells containing only cells and 3 blank control wells containing only culture medium were included (6 wells were each added 20 μL DMSO diluted 200 times with culture medium).
(1) After culturing for 6 days, 10 μL CCK-8 was added to each well, and the plate was continually cultured in a 37° C., 5% CO2 cell incubator for 2.5 h. (2) The absorbance (OD value) was detected at 450 nm using a multifunctional microplate reader. (3) The data were analyzed by Dose-response-inhibition equation in the software GraphPad Prism6, and the IC50 value was obtained.
Using the same method as Experimental example 4, CWR22RV1 cells were replaced with MCF-7 cells, and the IC50 values (nM) of the compound according to the present invention, palbociclib, as well as the combination of the compound according to the present invention and palbociclib against the proliferation of MCF-7 cells w ere tested and calculated.

[17] = tested on: LNCAP; assay: Inhibition of proliferation of LNCAP cells; format: cell-based; details: Homo sapiens; Prostate cancer cell line LNCAP; read-out: IC50 against LNCAP
Experimental: as §1, §2

[18] = read-out: IC50 against CWR22RV1 cells
[19] = read-out: IC50 against CWR22RV1 cells (text)

With `CNC(=O)Nc1ccc2c(c1)CC[C@@]21OC(=O)N(CC(=O)N2C(C)CC[C@H]2c2cc(F)c(F)c(F)c2)C1=O` (stereo in doubt) [Example 205, 1-((R)-3′-(2-((2S,5R)-2-(3,4,5-trifluorophenyl)-5-methylpyrrolidin-1-yl)-2-oxoethyl)-2′,4′-dioxo-2,3-dihydrospiro[indene-1,5′-oxazolidine]-5-yl)-3-methylurea] the IC50 [1] was 500 to 2000 nM, the IC50 [2] was 500 to 2000 nM and the IC50 [3] was at most 500 nM. For the same molecule, the IC50 [4] was at most 500 nM, the IC50 [5] was at most 500 nM and the IC50 [6] was at most 500 nM. The IC50 [7, 18] was at most 500 nM, the IC50 [7, 19] was at most 500 nM and the IC50 [8] was 500 to 2000 nM. For the same molecule, the IC50 [9] was at most 500 nM, the IC50 [10] was at most 500 nM and the IC50 [11] was at most 500 nM. For the same molecule, the IC50 [12] was at most 500 nM, the IC50 [13] was at most 500 nM and the IC50 [14] was at most 500 nM. The IC50 [15] was at most 500 nM, the IC50 ([16]; MCF7, in combination with 10 nM palbociclib) was 19 nM and the IC50 ([16]; MCF7, in combination with 30 nM palbociclib) was 1.6 nM. For the same molecule, the IC50 ([16]; MCF7, in combination with 100 nM palbociclib) was 1.5 nM, the IC50 ([16]; MCF7, single agent) was 81 nM and the “inhibitory activity on MCF-7 cells when combined with palbociclib, versus either agent alone” value ([16]; combination with CDK4/6 inhibitor palbociclib) was “much higher”. It also gave an IC50 [17] of at most 500 nM.
`CNC(=O)Nc1ccc2c(c1)CC[C@@]21OC(=O)N(CC(=O)N2[C@@H](C)CC[C@H]2c2ccc(F)c(F)c2)C1=O` [Example 201] was tested, and the IC50 [1] was 500 to 2000 nM, the IC50 [2] was 500 to 2000 nM and the IC50 [3] was at most 500 nM. The IC50 [4] was at most 500 nM, the IC50 [5] was at most 500 nM and the IC50 [6] was at most 500 nM. It also gave an IC50 [7, 18] of at most 500 nM, an IC50 [7, 19] of at most 500 nM and an IC50 [8] of 500 to 2000 nM. The IC50 [9] was at most 500 nM, the IC50 [10] was at most 500 nM and the IC50 [11] was at most 500 nM. It also gave an IC50 [12] of at most 500 nM, an IC50 [13] of at most 500 nM and an IC50 [14] of at most 500 nM. The IC50 [15] was at most 500 nM and the IC50 [17] was at most 500 nM.
Molecule `CNC(=O)Nc1cc2c(cc1F)[C@@]1(CC2)OC(=O)N(CC(=O)N2[C@@H](C)CC[C@H]2c2ccc(F)c(F)c2)C1=O` [Example 389, 1-((R)-3′-(2-((2S,5S)-2-(3,4-difluorophenyl)-5-methylpyrrolidin-1-yl)-2-oxoethyl)-6-fluoro-2′,4′-dioxo-2,3-dihydrospiro[indene-1,5′-oxazolidine]-5-yl)-3-methylurea] has an IC50 [1] of 500 to 2000 nM, an IC50 [2] of at most 500 nM and an IC50 [3] of at most 500 nM. For the same molecule, the IC50 [4] was at most 500 nM, the IC50 [5] was at most 500 nM and the IC50 [6] was at most 500 nM. It also gave an IC50 [7, 18] of at most 500 nM, an IC50 [7, 19] of at most 500 nM and an IC50 [8] of at most 500 nM. The IC50 [9] was at most 500 nM, the IC50 [10] was at most 500 nM and the IC50 [11] was at most 500 nM. For the same molecule, the IC50 [12] was at most 500 nM, the IC50 [13] was at most 500 nM and the IC50 [14] was at most 500 nM. It also gave an IC50 [15] of at most 500 nM and an IC50 [17] of at most 500 nM.
